Results taken from ChEMBL document CHEMBL5512597, “Triazole hybrid compounds: A new frontier in malaria treatment” (Eur J Med Chem, 2023).
pIC50: −log10 of the molar value.

How the values were obtained:
Plasmodium falciparum [1] = test: Antimalarial activity against CQ-sensitive Plasmodium falciparum D6 assessed as parasite growth inhibition by LDH assay; assay type: functional, organism-based
Plasmodium falciparum [2] = test: Antimalarial activity against CQ-resistant Plasmodium falciparum W2 assessed as parasite growth inhibition by LDH assay; assay type: functional, organism-based
Plasmodium falciparum [3] = test: Antiplasmodial activity against CQ-sensitive Plasmodium falciparum F32 Tanzania assessed as parasite growth inhibition incubated for 48 hrs; assay type: functional, organism-based
Plasmodium falciparum [4] = test: Antimalarial activity against CQ-sensitive Plasmodium falciparum 3D7 infected in human O+ erythrocytes assessed as parasite growth inhibition incubated for 48 hrs by SYBR Green I staining based analysis; assay type: functional, organism-based; conditions: 3D7, Erythrocyte
Plasmodium falciparum [5] = test: Antimalarial activity against CQ-resistant Plasmodium falciparum K1 infected in human O+ erythrocytes assessed as parasite growth inhibition incubated for 48 hrs by SYBR Green I staining based analysis; assay type: functional, organism-based; conditions: K1, Erythrocyte
Plasmodium falciparum [6] = test: Antimalarial activity against Plasmodium falciparum W2 assessed as parasite growth inhibition; assay type: functional, organism-based
Plasmodium falciparum [7] = test: Antiplasmodial activity against Plasmodium falciparum 3D7 at asexual erythrocytic stage infected in human erythrocytes assessed as parasite growth inhibition incubated for 42 hrs by [3H]-hypoxanthine incorporation assay; assay type: functional, organism-based; conditions: 3D7, Erythrocyte
Plasmodium falciparum [8] = test: Antiplasmodial activity against Plasmodium falciparum K1 at asexual stage assessed as parasite growth inhibition; assay type: functional, organism-based
Plasmodium falciparum [9] = test: Antiplasmodial activity against CQ-sensitive Plasmodium falciparum NF54 at asexual stage assessed as parasite growth inhibition; assay type: functional, organism-based
Plasmodium falciparum [10] = test: Antimalarial activity against Plasmodium falciparum 3D7 infected in erythrocytes assessed as parasite growth inhibition incubated for 42 hrs by [3H]-hypoxanthine incorporation assay; assay type: functional, organism-based; conditions: 3D7, Erythrocyte
Plasmodium falciparum [11] = test: Antiplasmodial activity against CQ-sensitive Plasmodium falciparum NF54; assay type: functional, organism-based
[12] = Cytotoxicity against African green monkey Vero cells; assay type: toxicity, cell-based; conditions: chlorocebus sabaeus
Plasmodium falciparum [13] = test: Antimalarial activity against Plasmodium falciparum 3D7 assessed as inhibition of parasite proliferation; assay type: functional, organism-based
Plasmodium falciparum [14] = test: Antimalarial activity against Plasmodium falciparum 3D7 assessed as inhibition of parasitemia incubated for 72 hrs by fluorescence based assay; assay type: functional, organism-based; conditions: 3D7, 72 h
[15] = Inhibition of Plasmodium falciparum SR21
Plasmodium falciparum [16] = test: Antiplasmodial activity against CQ-susceptible Plasmodium falciparum 3D7 assessed as parasite growth inhibition incubated for 72 hrs by SYBR Green I staining based analysis; assay type: functional, organism-based; conditions: 3D7, 72 h
Plasmodium falciparum [17] = test: Antiplasmodial activity against CQ-resistant Plasmodium falciparum W2 assessed as parasite growth inhibition incubated for 72 hrs by SYBR Green I staining based analysis; assay type: functional, organism-based; conditions: W2, 72 h

With `O=C1c2nnn(Cc3cccc(Cl)c3)c2C(=O)c2nnn(Cc3cccc(Cl)c3)c21` the pIC50 (Plasmodium falciparum [1]) was 5.20 and the pIC50 (Plasmodium falciparum [2]) was 5.12.

For `CCCCn1cc(COC2=CC(=O)c3ccccc3C2=O)nn1`, the pIC50 (Plasmodium falciparum [3]) was 4.95.

Molecule `COC(=O)c1ccccc1-c1ccc(Cn2cc(-c3cncc4ccccc34)nn2)cc1` has a pIC50 (Plasmodium falciparum [4]) of 4.45 and a pIC50 (Plasmodium falciparum [5]) of 4.28.

`C=C[C@H]1CN2CC[C@H]1C[C@H]2[C@H](c1ccnc2ccccc12)n1cc(-c2ccccc2)nn1` gave a pIC50 (Plasmodium falciparum [6]) of 5.33.

With `C=C[C@H]1CN2CC[C@H]1C[C@H]2[C@H](c1ccnc2ccccc12)n1cc(C(C)(C)N)nn1` the pIC50 (Plasmodium falciparum [6]) was 5.34.

Molecule `Cc1ccc(OCc2cn(-c3ccc(S(N)(=O)=O)cc3)nn2)cc1` has an IC50 (Plasmodium falciparum [7]) greater than 50 µg/mL.

Molecule `C=C[C@H]1CN2CC[C@H]1C[C@H]2[C@H](c1ccnc2ccccc12)n1cc(CO)nn1` has a pIC50 (Plasmodium falciparum [6]) of 5.17.

Molecule `O=C1C=C(OCc2cn(-c3ccc(S)cc3)nn2)C(=O)c2ccccc21` has a pIC50 (Plasmodium falciparum [3]) of less than 4.70.

In the case of `C=C[C@H]1CN2CC[C@H]1C[C@H]2[C@H](c1ccnc2ccccc12)n1cc(C(C)(C)O)nn1`, the pIC50 (Plasmodium falciparum [6]) was 5.59.

`Clc1ccc(-n2cc(-c3cncc4ccccc34)nn2)cc1` gave a pIC50 (Plasmodium falciparum [4]) of 4.43 and a pIC50 (Plasmodium falciparum [5]) of 5.34.

With `Clc1ccc2c(-c3cn(CC(c4ccccc4)c4ccccc4)nn3)ccnc2c1` the pIC50 (Plasmodium falciparum [4]) was 4.04 and the pIC50 (Plasmodium falciparum [5]) was 4.14.

Molecule `O=C1C=C(OCc2cn(C3=CC(=O)c4ccccc4C3=O)nn2)C(=O)c2ccccc21` has a pIC50 (Plasmodium falciparum [3]) of 5.72.

Work on `Cc1cccc(Cn2nnc3c2C(=O)c2nnn(Cc4cccc(C)c4)c2C3=O)c1` yielded a pIC50 (Plasmodium falciparum [1]) of 5.08 and a pIC50 (Plasmodium falciparum [2]) of 5.18.

For `COC(=O)C1=C(Cn2cc(CNc3ccnc4cc(Cl)ccc34)nn2)N(C)C(=O)NC1c1ccc(F)cc1` (stereo unspecified), the pIC50 (Plasmodium falciparum [8]) was 6.30 and the pIC50 (Plasmodium falciparum [9]) was 6.86.

In the case of `COc1ccc2cc3[n+](cc2c1OCc1cn(-c2ccc(S(=O)(=O)Nc4ccc([N+](=O)[O-])cc4)cc2)nn1)CCc1cc2c(cc1-3)OCO2.Cl`, the IC50 (Plasmodium falciparum [10]) was 20 µg/mL.

For `O=C1c2nnn(Cc3cccc(F)c3)c2C(=O)c2nnn(Cc3cccc(F)c3)c21`, the pIC50 (Plasmodium falciparum [1]) was 6.17 and the pIC50 (Plasmodium falciparum [2]) was 6.23.

Molecule `COc1ccc2cc3[n+](cc2c1OCc1cn(-c2ccc(S(=O)(=O)N4CCN(c5ccccn5)CC4)cc2)nn1)CCc1cc2c(cc1-3)OCO2.[Cl-]` has an IC50 (Plasmodium falciparum [10]) of 1 µg/mL.

For `CCCCCCCCCCCn1cc(COC2=CC(=O)c3ccccc3C2=O)nn1`, the pIC50 (Plasmodium falciparum [3]) was 4.77.

`CC(=O)c1cccc(-n2cc(COC(=O)[C@@]3(C)CC[C@]4(C)CC[C@]5(C)C(=CC(=O)[C@@H]6[C@@]7(C)CC[C@H](O)C(C)(C)[C@@H]7CC[C@]65C)[C@@H]4C3)nn2)c1` gave a pIC50 (Plasmodium falciparum [11]) of 5.46 and a CC50 [12] of 213 µM.

For `COC(=O)C1=C(Cn2cc(CNc3ccnc4cc(Cl)ccc34)nn2)N(C)C(=O)NC1c1ccc(OC)cc1` (stereo unspecified), the pIC50 (Plasmodium falciparum [8]) was 6.38 and the pIC50 (Plasmodium falciparum [9]) was 6.74.

For `CC(C)(CO)[C@@H](O)C(=O)NCCc1cn(CCc2ccccc2)nn1`, the pIC50 (Plasmodium falciparum [13]) was 5.27.

Work on `Clc1cc(Cl)cc(-n2cc(/C=N/Nc3ccc(Br)cc3)nn2)c1` yielded a pIC50 (Plasmodium falciparum [14]) of 4.53 and a pIC50 [15] of 4.91.

`C=C[C@H]1CN2CC[C@H]1C[C@H]2[C@H](c1ccnc2ccccc12)n1cc(CCC)nn1` showed a pIC50 (Plasmodium falciparum [6]) of 5.70.

For `O=S(=O)(c1ccc(-n2cc(COc3ccccc3)nn2)cc1)N1CCCCC1`, the IC50 (Plasmodium falciparum [7]) was greater than 50 µg/mL.

With `OB1OCc2cc(OCc3cn(-c4ccnc5ccc(Cl)cc45)nn3)ccc21` the pIC50 (Plasmodium falciparum [16]) was 5.31 and the pIC50 (Plasmodium falciparum [17]) was 5.28.

`CC1(C)[C@@H](O)CC[C@]2(C)[C@H]3C(=O)C=C4[C@@H]5C[C@@](C)(C(=O)OCc6cn(-c7ccc(O)cc7[N+](=O)[O-])nn6)CC[C@]5(C)CC[C@@]4(C)[C@]3(C)CC[C@@H]12` gave a pIC50 (Plasmodium falciparum [11]) of 6.33 and a CC50 [12] of 253 µM.

With `CC1(C)[C@@H](O)CC[C@]2(C)[C@H]3C(=O)C=C4[C@@H]5C[C@@](C)(C(=O)OCc6cn(-c7ccc([N+](=O)[O-])cc7)nn6)CC[C@]5(C)CC[C@@]4(C)[C@]3(C)CC[C@@H]12` the pIC50 (Plasmodium falciparum [11]) was 5.57 and the CC50 [12] was 175 µM.

Work on `CC1(C)[C@@H](O)CC[C@]2(C)[C@H]3C(=O)C=C4[C@@H]5C[C@@](C)(C(=O)OCc6cn(-c7ccc(Cl)cc7)nn6)CC[C@]5(C)CC[C@@]4(C)[C@]3(C)CC[C@@H]12` yielded a pIC50 (Plasmodium falciparum [11]) of 6.32 and a CC50 [12] of 391 µM.

`Cc1cc(C)nc(NS(=O)(=O)c2ccc(-n3cc(COc4ccccc4)nn3)cc2)n1` showed an IC50 (Plasmodium falciparum [7]) greater than 50 µg/mL.

With `COC(=O)C1=C(Cn2cc(CNc3ccnc4cc(Cl)ccc34)nn2)NC(=O)NC1c1ccc(F)cc1` (stereo unspecified) the pIC50 (Plasmodium falciparum [8]) was 6.26 and the pIC50 (Plasmodium falciparum [9]) was 6.66.

In the case of `CC(C)(C)c1ccc(Cn2cc(-c3cccc4ccccc34)nn2)cc1`, the pIC50 (Plasmodium falciparum [4]) was 4.43 and the pIC50 (Plasmodium falciparum [5]) was 4.37.

Work on `CCCCCn1nncc1CNC(=O)[C@H](O)C(C)(C)CO` yielded a pIC50 (Plasmodium falciparum [13]) of 4.44.

With `O=C1C=C(OCc2cn(-c3ccc(CO)cc3)nn2)C(=O)c2ccccc21` the pIC50 (Plasmodium falciparum [3]) was 5.01.

Work on `Cc1ccc(-n2cc(COC(=O)[C@@]3(C)CC[C@]4(C)CC[C@]5(C)C(=CC(=O)[C@@H]6[C@@]7(C)CC[C@H](O)C(C)(C)[C@@H]7CC[C@]65C)[C@@H]4C3)nn2)cc1Cl` yielded a pIC50 (Plasmodium falciparum [11]) of 5.39 and a CC50 [12] of 377 µM.
